Where “and” joins values, the source holds several entries; their conditions need not be identical. Equal values may be shown once. Inconclusive results and toxic doses are left out. The calls were made as follows: active = survival T/C of 150% or more; inactive = T/C below 125% in these data.
Tested on: P388 leukemia ip, CD2F1 mice, survival T/C
Assay: NCI In Vivo Anticancer Drug Screen. Data for tumor model P388 Leukemia (intraperitoneal) in CD2F1 (CDF1) mice
Details: endpoint: median survival time, higher = longer survival
Procedure, shortened: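 Mice carrying the transplanted tumor received test compound or vehicle. Survival was recorded in each group, and the value is the treated-group measurement divided by that of the vehicle-treated control group.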

[1] = dose: 120.0 mg/kg/injection, schedule: Q01DX005 (ip), vehicle: saline with Tween-80
[2] = dose: 100.0 mg/kg/injection, schedule: Q01DX001 (ip), vehicle: Klucel (hydroxypropylcellulose) (HPC)
[3] = dose: 25.0 mg/kg/injection, schedule: Q01DX009 (ip), vehicle: saline sonified
[4] = dose: 50.0 mg/kg/injection, schedule: Q01DX009 (ip), vehicle: saline sonified
[5] = dose: 60.0 mg/kg/injection, schedule: Q01DX005 (ip), vehicle: Klucel (hydroxypropylcellulose) (HPC)
[6] = dose: 120.0 mg/kg/injection, schedule: Q01DX005 (ip), vehicle: Klucel (hydroxypropylcellulose) (HPC)
[7] = dose: 200.0 mg/kg/injection, schedule: Q01DX001 (ip), vehicle: Klucel (hydroxypropylcellulose) (HPC)
[8] = dose: 50.0 mg/kg/injection, schedule: Q01DX005 (ip), vehicle: Klucel (hydroxypropylcellulose) (HPC)
[9] = dose: 100.0 mg/kg/injection, schedule: Q01DX005 (ip), vehicle: Klucel (hydroxypropylcellulose) (HPC)
[10] = dose: 200.0 mg/kg/injection, schedule: Q01DX005 (ip), vehicle: Klucel (hydroxypropylcellulose) (HPC)
[11] = dose: 200.0 mg/kg/injection, schedule: Q01DX009 (ip), vehicle: saline

Measured: T/C

CCOC(=O)C1Cc2c(OC)cc(OC)cc2OC1=O (stereo unspecified)
inactive: dose: 60.0 mg/kg/injection, schedule: Q01DX005 (ip), vehicle: saline with Tween-80 97 % of control | [1] 94 % of control | dose: 240.0 mg/kg/injection, schedule: Q01DX005 (ip), vehicle: saline with Tween-80 92 % of control

Nc1ccc(C(=O)Oc2ccc(OC(=O)c3ccc(N)cc3)cc2)cc1
inactive: dose: 25.0 mg/kg/injection, schedule: Q01DX001 (ip), vehicle: Klucel (hydroxypropylcellulose) (HPC) 99 % of control | dose: 50.0 mg/kg/injection, schedule: Q01DX001 (ip), vehicle: Klucel (hydroxypropylcellulose) (HPC) 96 % of control | [2] 101 % of control

OCCN=Cc1ccccc1
inactive: [3] 90 % of control | [4] 104 % of control | dose: 100.0 mg/kg/injection, schedule: Q01DX009 (ip), vehicle: saline sonified 104 % of control

NC12CCC(N)(c3ccccc31)c1ccccc12
inactive: [5] 93 % of control | [6] 98 % of control | dose: 240.0 mg/kg/injection, schedule: Q01DX005 (ip), vehicle: Klucel (hydroxypropylcellulose) (HPC) 98 % of control

CCOc1ccc(/C=C/S(=O)(=O)/C=C\c2ccccc2)c(OC)c1
inactive: dose: 50.0 mg/kg/injection, schedule: Q01DX005 (ip), vehicle: saline with Tween-80 98 % of control | dose: 100.0 mg/kg/injection, schedule: Q01DX005 (ip), vehicle: saline with Tween-80 92 % of control | dose: 200.0 mg/kg/injection, schedule: Q01DX005 (ip), vehicle: saline with Tween-80 87 % of control

OCC(O)C(O)C(O)C(O)c1nn[nH]n1 (stereo unspecified)
inactive: dose: 100.0 mg/kg/injection, schedule: Q01DX001 (ip), vehicle: saline 95 % of control | dose: 200.0 mg/kg/injection, schedule: Q01DX001 (ip), vehicle: saline 101 % of control | dose: 400.0 mg/kg/injection, schedule: Q01DX001 (ip), vehicle: saline 92 % of control

CNC(=O)/C=C/C1=CN2C(=O)c3ccc(C)c(O)c3NC(OC)C2C1 (stereo unspecified)
inactive: dose: 0.01 mg/kg/injection, schedule: Q01DX009 (ip), vehicle: suspension in saline 102 % of control and 115 % of control | dose: 0.02 mg/kg/injection, schedule: Q01DX009 (ip), vehicle: suspension in saline 116 % of control | dose: 0.05 mg/kg/injection, schedule: Q01DX009 (ip), vehicle: saline 121 % of control | dose: 0.05 mg/kg/injection, schedule: Q01DX009 (ip), vehicle: suspension in saline 120 % of control | dose: 0.2 mg/kg/injection, schedule: Q01DX009 (ip), vehicle: saline 92 % of control | dose: 0.2 mg/kg/injection, schedule: Q01DX009 (ip), vehicle: suspension in saline 97 % of control

Cc1c2ccncc2c(CNC(=O)C(N)Cc2c[nH]c3ccccc23)c2c3ccccc3n(C)c12 (stereo unspecified)
inactive: dose: 6.25 mg/kg/injection, schedule: Q04DX002 (ip), vehicle: saline with Tween-80 108 % of control | dose: 12.5 mg/kg/injection, schedule: Q04DX002 (ip), vehicle: saline with Tween-80 112 % of control | dose: 25.0 mg/kg/injection, schedule: Q04DX002 (ip), vehicle: saline with Tween-80 115 % of control | dose: 50.0 mg/kg/injection, schedule: Q04DX002 (ip), vehicle: saline with Tween-80 117 % of control

NC(N)=Nc1nc2ccccc2s1
inactive: dose: 12.5 mg/kg/injection, schedule: Q01DX009 (ip), vehicle: saline sonified 100 % of control | [3] 100 % of control | [4] 100 % of control

Fc1ccc(CSC(=S)Nc2cccc(C(F)(F)F)c2)cc1
inactive: dose: 50.0 mg/kg/injection, schedule: Q01DX009 (ip), vehicle: suspension in saline 97 % of control | dose: 100.0 mg/kg/injection, schedule: Q01DX009 (ip), vehicle: suspension in saline 90 % of control

C1COCCOCCOCCO1.[Cl][Sn]([Cl])([Cl])[Cl]
inactive: [2] 98 % of control | [7] 90 % of control

O=C(Nc1ccc(Cl)cc1)Sc1nnc2c(n1)[nH]c1ccccc12
inactive: [8] 103 % of control | [9] 111 % of control | [10] 103 % of control

CCOC(=O)CC(=O)OC(C)(C)C
inactive: dose: 25.0 mg/kg/injection, schedule: Q01DX009 (ip), vehicle: saline with Tween-80 97 % of control | dose: 50.0 mg/kg/injection, schedule: Q01DX009 (ip), vehicle: saline with Tween-80 106 % of control | dose: 100.0 mg/kg/injection, schedule: Q01DX009 (ip), vehicle: saline with Tween-80 104 % of control | dose: 200.0 mg/kg/injection, schedule: Q01DX009 (ip), vehicle: saline with Tween-80 100 % of control

O=C(CCCCCCCCc1cccc2c1OCO2)c1c(O)cccc1O
inactive: dose: 2.0 mg/kg/injection, schedule: Q01DX009 (ip), vehicle: Klucel (hydroxypropylcellulose) (HPC) 103 % of control | dose: 4.0 mg/kg/injection, schedule: Q01DX009 (ip), vehicle: Klucel (hydroxypropylcellulose) (HPC) 95 % of control | dose: 8.0 mg/kg/injection, schedule: Q01DX009 (ip), vehicle: Klucel (hydroxypropylcellulose) (HPC) 109 % of control | dose: 16.0 mg/kg/injection, schedule: Q01DX009 (ip), vehicle: Klucel (hydroxypropylcellulose) (HPC) 105 % of control

CCN(CC)CCCC(C)Nc1cc(/C=C/c2ccc(Cl)cc2)nc2cc(N(C)C)ccc12 (stereo unspecified)
inactive: dose: 3.12 mg/kg/injection, schedule: Q01DX009 (ip), vehicle: Klucel (hydroxypropylcellulose) (HPC) 107 % of control | dose: 6.25 mg/kg/injection, schedule: Q01DX009 (ip), vehicle: Klucel (hydroxypropylcellulose) (HPC) 110 % of control | dose: 12.5 mg/kg/injection, schedule: Q01DX009 (ip), vehicle: Klucel (hydroxypropylcellulose) (HPC) 98 % of control and 102 % of control

Cc1ccc(NC(=O)NNC(=O)CSC2CCc3ccccc32)c(C)c1 (stereo unspecified)
inactive: [8] 92 % of control | [9] 92 % of control | [10] 90 % of control

CCOC(=O)N(NC(=O)c1ccccc1)C(C)=O
inactive: dose: 12.5 mg/kg/injection, schedule: Q01DX009 (ip), vehicle: other 111 % of control | dose: 25.0 mg/kg/injection, schedule: Q01DX009 (ip), vehicle: other 109 % of control | dose: 50.0 mg/kg/injection, schedule: Q01DX009 (ip), vehicle: other 99 % of control

CCCCCCCCCCCCCCCCCC1=NC(C)CC(C)(C)O1 (stereo unspecified)
inactive: dose: 100.0 mg/kg/injection, schedule: Q01DX009 (ip), vehicle: saline 95 % of control | [11] 104 % of control

N#CC(c1cc2c(cc1Br)OCO2)N1CCCC1 (stereo unspecified)
inactive: [2] 100 % of control | [7] 101 % of control | dose: 400.0 mg/kg/injection, schedule: Q01DX001 (ip), vehicle: Klucel (hydroxypropylcellulose) (HPC) 99 % of control

CN(C)C1=NC(N(C)C)=C2C=C(C(C)(C)C)C=C12
inactive: [5] 101 % of control | [6] 101 % of control

O=C(O)C(=O)O.OO.OO.[O]=[V]
inactive: dose: 0.94 mg/kg/injection, schedule: Q01DX005 (ip), vehicle: saline 92 % of control | dose: 3.75 mg/kg/injection, schedule: Q01DX005 (ip), vehicle: saline 110 % of control

CCc1nc(N)nc(N)c1-c1ccc(NCCCCCCCCCCCCN)c([N+](=O)[O-])c1
inactive: dose: 15.0 mg/kg/injection, schedule: Q01DX005 (ip), vehicle: saline with Tween-80 117 % of control | dose: 30.0 mg/kg/injection, schedule: Q01DX005 (ip), vehicle: saline with Tween-80 107 % of control | [1] 91 % of control

CC(=O)NC1CC(C)(C)NC(C)(C)C1
inactive: dose: 12.5 mg/kg/injection, schedule: Q01DX009 (ip), vehicle: saline 100 % of control | dose: 25.0 mg/kg/injection, schedule: Q01DX009 (ip), vehicle: saline 96 % of control | dose: 50.0 mg/kg/injection, schedule: Q01DX009 (ip), vehicle: saline 114 % of control and 88 % of control | [11] 95 % of control
